Measurements reported in patent US5792796A, “Methods for treating anxiety and panic” (Warner-Lambert Company, priority 1995, dated 1998).

Assays:
[1] = in vivo; cited from earlier work
[2] = tested on: glycine/NMDA receptor; settings: previous radioligand binding studies; cited from earlier work
[3] = tested on: rats; experiment: Rat conflict test
Procedure: Male Hooded Lister rats (200-250 g) were obtained from Interfauna (Huntingdon, UK) and male TO mice (20-25 g) were obtained from Bantin and Kingman (Hull, UK). Both rodent species were housed in groups of six. Ten Common Marmosets (Callithrix Jacchus) weighing between 280 and 360 g, bred at Manchester University Medical School (Manchester, UK) were housed in pairs. All animals were housed under a 12-hour light/dark cycle (lights on at 07.00 hour) and with food and water ad libitum.
Rats were trained to press levers for food reward in operant chambers. The schedule consisted of alternations of four 4-minute unpunished periods on variable interval of 30 seconds signalled by chamber lights on and three 3-minute punished periods on fixed ratio 5 (by footshock concomitant to food delivery) signalled by chamber lights off. The degree of footshock was adjusted for each rat to obtain approximately 80% to 90% suppression of responding in comparison with unpunished responding. Rats received saline vehicle on training days.
The results are expressed as mean percent increase or decrease of lever pressing (vertical bars represent ±SEM) of at least 5 animals per group on test day compared with mean performances obtained the 2 previous days following vehicle administration.
*p <0.05, **p <0.01 (paired Student t-test).

[4] = in vivo; cited from earlier work; remark: listed apart in the source

| SMILES | penetration of the blood-brain barrier [1] | binding to the glycine/NMDA receptor [2] | reduction in lever pressing in the unpunished period (indicating sedation/ataxia) ([3]; 100 mg/kg (highest dose tested)) [%] | metabolism in the body [4] | increase in lever pressing in the punished period ([3]; 3 mg/kg (minimum effective dose), 40 minutes before test) [%] | maximal effect, increase in lever pressing in the punished period ([3]; 30 mg/kg, 40 minutes before test) [%] | minimal effective dose ([3]; Rattus norvegicus, 40 min, read-out: minimum effective dose (MED) for increased lever pressing in the punished period) [mg/kg] | unpunished responding ([3]; any of the doses tested (1-100 mg/kg)) |
| --- | --- | --- | --- | --- | --- | --- | --- | --- |
| NCC1(CC(=O)O)CCCCC1 [gabapentin, 1-(aminomethyl)cyclohexaneacetic acid] | readily penetrates | does not bind | 37.4 | not metabolized |  |  |  |  |
| CNC1=Nc2ccc(Cl)cc2C(c2ccccc2)=[N+]([O-])C1 [chlordiazepoxide] |  |  |  |  | 128.4 | 330.0 | 3 | not reduced |
